# Results from PubChem BioAssay AID1963977 (Molecular Pharmacology Branch, DTP, NCI, 2024).
# Tested on: 624824-186-R-J3-PDC multicell spheroids, viability
# Assay: Anticancer human tumor 624824-186-R-J3-PDC patient-derived colon adenocarcinoma cell line growth inhibition [PI3K]
# Details: for IC50: curve of first compound; for viability, T/C: stronger effect = lower value
# Source text: Combinatorial screen of targeted agents with the PI3K inhibitors inavolisib, alpelisib, duvelisib, and copanlisib in multi-cell type tumor spheroids
# A high-throughput screen of multi-cell type tumor spheroids was designed to identify active combinations of targeted small molecules and PI3K pathway inhibitors. Complex spheroids include a stromal component modeled by human endothelial cells (HUVEC) and fibroblasts modeled by human mesenchymal stem cells (MSCs). The concentration ranges selected for each drug and investigational agent were based upon clinically achievable concentrations if the clinical Cmax of the agent was known.
# Compounds. The drugs and investigational agents: inavolisib (NSC800729), alpelisib (NSC765974), duvelisib (NSC772469), copanlisib (NSC816437), ipatasertib (NSC767898), afuresertib (NSC778305), talazoparib (NSC767125), sapanisertib (NSC764658), selumetinib (NSC741078), tovorafenib (DAY101, NSC766906), vemurafenib (NSC761431), ravoxertinib (NSC781343), sotorasib (NSC818433), MRTX1133 (NSC 836407), abemaciclib (NSC 768073), palbociclib (NSC758247), venetoclax (NSC 766270), SY5609 (NSC837396), enzalutamide (NSC755605), and darolutamide (NSC825331), were obtained from the National Cancer Institute (NCI) Developmental Therapeutics Program Chemical Repository. The FDA-approved anticancer drug set is available from the NCI Developmental Therapeutics Program. […] The stock solutions were prepared in dimethyl sulfoxide (DMSO, Sigma-Aldrich, St. Louis, MO, cat. D2650) at 800-fold the tested concentration and stored at -70 degrees C prior to their use. All drugs and investigational agents were tested over a range starting from a high concentration at or near the clinical Cmax and decreasing in half-log increments. If the clinical Cmax for an agent had not been determined, the highest concentration tested was 10 microM.
# Cell Culture. All cells were maintained in an incubator at 37 degrees C and 5% CO2 with 95% humidity. The PDC lines were cultured according to standard operating procedures established by the NCI PDMR (https://pdmr.cancer.gov/sops/default.htm). All PDCs were thawed and cultured in Matrigel-coated flasks prepared with a working solution of 1X Ham's F-12 nutrient mix, without supplementation (Invitrogen, Waltham, MA, cat. 11765054), 100 U/mL penicillin-streptomycin (Invitrogen, cat. 15140122), and 2.5% Matrigel (Corning Inc., Corning, NY, cat. 354248) for the first three passages. The 354836-022-R-J1-PDC, 475296-252-R-J1-PDC, and 997726-040-R-J2-PDC lines were cultured in 6A media, which includes advanced DMEM/F-12 (Thermo Fisher Scientific, cat. 12634028), 10 mM HEPES (Thermo Fisher Scientific, cat. 15630080), 1X GlutaMAX supplement (Thermo Fisher Scientific, cat. 35050061), 0.1 mg/mL primocin (InvivoGen, San Diego, CA, cat. ant-pm-2), 10% defined fetal bovine serum, heat inactivated (HyClone Laboratories Inc., Logan, UT, cat. SH30070.03HI), 50% L-WRN conditioned media (ATCC, cat. CRL-3276), 1.25 mM N-Acetyl-L-cysteine (Sigma-Aldrich, cat. A9165), 10 mM nicotinamide (Sigma-Aldrich, cat. N0636), 1X B-27 supplement (Thermo Fisher Scientific, cat. 17504044), 1X N-2 supplement (Thermo Fisher Scientific, cat. 17502048), and 10 microM Y-27632 dihydrochloride (Tocris Bioscience, Bristol, United Kingdom, cat. 1254). The 624824-186-R-J2-PDC line was cultured in 6C/Colon 1B media, which includes all 6A media components plus 50 ng/mL human EGF recombinant protein (Thermo Fisher Scientific, cat. PHG0311). […]
# [1] = second compound 0.00316 µM, first compound 0.0316 µM
# [2] = second compound 0.00316 µM, first compound 0.1 µM
# [3] = second compound 0.00316 µM, first compound 0.316 µM
# [4] = second compound 0.00316 µM, first compound 1 µM
# [5] = second compound 0.01 µM, first compound 0.0316 µM
# [6] = second compound 0.01 µM, first compound 0.1 µM
# [7] = second compound 0.01 µM, first compound 0.316 µM
# [8] = second compound 0.01 µM, first compound 1 µM
# [9] = second compound 0.0316 µM, first compound 0.0316 µM
# [10] = second compound 0.0316 µM, first compound 0.1 µM
# [11] = second compound 0.0316 µM, first compound 0.316 µM
# [12] = second compound 0.0316 µM, first compound 1 µM
# [13] = second compound 0.1 µM, first compound 0.0316 µM
# [14] = second compound 0.1 µM, first compound 0.1 µM
# [15] = second compound 0.1 µM, first compound 0.316 µM
# [16] = second compound 0.1 µM, first compound 1 µM
# [17] = second compound 0.316 µM, first compound 0.0316 µM
# [18] = second compound 0.316 µM, first compound 0.1 µM
# [19] = second compound 0.316 µM, first compound 0.316 µM
# [20] = second compound 0.316 µM, first compound 1 µM
# [21] = second compound 1 µM, first compound 0.0316 µM
# [22] = second compound 1 µM, first compound 0.1 µM
# [23] = second compound 1 µM, first compound 0.316 µM
# [24] = second compound 1 µM, first compound 1 µM
# [25] = second compound 0.00316 µM, first compound 0.00316 µM
# [26] = second compound 0.00316 µM, first compound 0.01 µM
# [27] = second compound 0.01 µM, first compound 0.00316 µM
# [28] = second compound 0.01 µM, first compound 0.01 µM
# [29] = second compound 0.0316 µM, first compound 0.00316 µM
# [30] = second compound 0.0316 µM, first compound 0.01 µM
# [31] = second compound 0.1 µM, first compound 0.00316 µM
# [32] = second compound 0.1 µM, first compound 0.01 µM
# [33] = second compound 0.316 µM, first compound 0.00316 µM
# [34] = second compound 0.316 µM, first compound 0.01 µM
# [35] = second compound 1 µM, first compound 0.00316 µM
# [36] = second compound 1 µM, first compound 0.01 µM
# 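Note: spheroids exposed to agents for seven days before luminescence read.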
# 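Throughout, for viability, T/C: luminescent signal used as a stand-in for spheroid viability; percent viability relative to DMSO vehicle control wells taken as 100%.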
compound,measurement,setting,value
CC(C)NCC(C(=O)N1CCN(c2ncnc3c2C(C)CC3O)CC1)c1ccc(Cl)cc1 (stereo unspecified) + CC(Nc1ccc2c(c1)OCCn1cc(N3C(=O)OCC3C(F)F)nc1-2)C(N)=O,IC50,second compound 0.00316 µM,6800 nM
same,IC50,second compound 0.01 µM,7520 nM
same,IC50,second compound 0.0316 µM,5350 nM
same,IC50,second compound 0.1 µM,7680 nM
same,IC50,second compound 0.316 µM,4240 nM
same,IC50,second compound 1 µM,3440 nM
same,"viability, T/C",[1],107%
same,"viability, T/C",[2],96.8%
same,"viability, T/C",[3],97.7%
same,"viability, T/C",[4],73.1%
same,"viability, T/C","second compound 0.00316 µM, first compound 3.16 µM",59.9%
same,"viability, T/C","second compound 0.00316 µM, first compound 10 µM",45.4%
same,"viability, T/C",[5],98.3%
same,"viability, T/C",[6],96.8%
same,"viability, T/C",[7],99.4%
same,"viability, T/C",[8],72%
same,"viability, T/C","second compound 0.01 µM, first compound 3.16 µM",63.8%
same,"viability, T/C","second compound 0.01 µM, first compound 10 µM",45.3%
same,"viability, T/C",[9],96.2%
same,"viability, T/C",[10],93.4%
same,"viability, T/C",[11],91.6%
same,"viability, T/C",[12],77.4%
same,"viability, T/C","second compound 0.0316 µM, first compound 3.16 µM",57.2%
same,"viability, T/C","second compound 0.0316 µM, first compound 10 µM",41.7%
same,"viability, T/C",[13],108%
same,"viability, T/C",[14],94.1%
same,"viability, T/C",[15],88.1%
same,"viability, T/C",[16],83.7%
same,"viability, T/C","second compound 0.1 µM, first compound 3.16 µM",59.5%
same,"viability, T/C","second compound 0.1 µM, first compound 10 µM",46.4%
same,"viability, T/C",[17],96.2%
same,"viability, T/C",[18],91.8%
same,"viability, T/C",[19],94.4%
same,"viability, T/C",[20],72.5%
same,"viability, T/C","second compound 0.316 µM, first compound 3.16 µM",54.2%
same,"viability, T/C","second compound 0.316 µM, first compound 10 µM",41.9%
same,"viability, T/C",[21],92%
same,"viability, T/C",[22],88.8%
same,"viability, T/C",[23],86.1%
same,"viability, T/C",[24],65%
same,"viability, T/C","second compound 1 µM, first compound 3.16 µM",53.6%
same,"viability, T/C","second compound 1 µM, first compound 10 µM",35.1%
CCN1CCN(Cc2ccc(Nc3ncc(F)c(-c4cc(F)c5nc(C)n(C(C)C)c5c4)n3)nc2)CC1 + CC(Nc1ccc2c(c1)OCCn1cc(N3C(=O)OCC3C(F)F)nc1-2)C(N)=O,IC50,second compound 0.00316 µM,> 1000 nM
same,IC50,second compound 0.01 µM,> 1000 nM
same,IC50,second compound 0.0316 µM,> 1000 nM
same,IC50,second compound 0.1 µM,> 1000 nM
same,IC50,second compound 0.316 µM,> 1000 nM
same,IC50,second compound 1 µM,287 nM
same,"viability, T/C",[25],99.2%
same,"viability, T/C",[26],96.2%
same,"viability, T/C",[1],106%
same,"viability, T/C",[2],101%
same,"viability, T/C",[3],93.2%
same,"viability, T/C",[4],97.1%
same,"viability, T/C",[27],101%
same,"viability, T/C",[28],89%
same,"viability, T/C",[5],114%
same,"viability, T/C",[6],102%
same,"viability, T/C",[7],104%
same,"viability, T/C",[8],90%
same,"viability, T/C",[29],101%
same,"viability, T/C",[30],97.8%
same,"viability, T/C",[9],102%
same,"viability, T/C",[10],105%
same,"viability, T/C",[11],89.6%
same,"viability, T/C",[12],76.3%
same,"viability, T/C",[31],94.6%
same,"viability, T/C",[32],96%
same,"viability, T/C",[13],103%
same,"viability, T/C",[14],105%
same,"viability, T/C",[15],75.2%
same,"viability, T/C",[16],58.3%
same,"viability, T/C",[33],94.5%
same,"viability, T/C",[34],92.9%
same,"viability, T/C",[17],105%
same,"viability, T/C",[18],77.2%
same,"viability, T/C",[19],54.6%
same,"viability, T/C",[20],49%
same,"viability, T/C",[35],95.6%
same,"viability, T/C",[36],87.6%
same,"viability, T/C",[21],81.1%
same,"viability, T/C",[22],56.5%
same,"viability, T/C",[23],45.4%
same,"viability, T/C",[24],52.5%
Cn1ncnc1[C@H]1c2n[nH]c(=O)c3cc(F)cc(c23)N[C@@H]1c1ccc(F)cc1 + CC(Nc1ccc2c(c1)OCCn1cc(N3C(=O)OCC3C(F)F)nc1-2)C(N)=O,IC50,second compound 0.00316 µM,> 100 nM
same,IC50,second compound 0.01 µM,> 100 nM
same,IC50,second compound 0.0316 µM,> 100 nM
same,IC50,second compound 0.1 µM,> 100 nM
same,IC50,second compound 0.316 µM,> 100 nM
same,IC50,second compound 1 µM,> 100 nM
same,"viability, T/C","second compound 0.00316 µM, first compound 0.000316 µM",102%
same,"viability, T/C","second compound 0.00316 µM, first compound 0.001 µM",93.5%
same,"viability, T/C",[25],101%
same,"viability, T/C",[26],99.7%
same,"viability, T/C",[1],87.8%
same,"viability, T/C",[2],111%
same,"viability, T/C","second compound 0.01 µM, first compound 0.000316 µM",97.8%
same,"viability, T/C","second compound 0.01 µM, first compound 0.001 µM",93.6%
same,"viability, T/C",[27],102%
same,"viability, T/C",[28],95.7%
same,"viability, T/C",[5],101%
same,"viability, T/C",[6],92.1%
same,"viability, T/C","second compound 0.0316 µM, first compound 0.000316 µM",107%
same,"viability, T/C","second compound 0.0316 µM, first compound 0.001 µM",99.7%
same,"viability, T/C",[29],97.5%
same,"viability, T/C",[30],92.8%
same,"viability, T/C",[9],97.4%
same,"viability, T/C",[10],106%
same,"viability, T/C","second compound 0.1 µM, first compound 0.000316 µM",94.7%
same,"viability, T/C","second compound 0.1 µM, first compound 0.001 µM",105%
same,"viability, T/C",[31],100%
same,"viability, T/C",[32],99.8%
same,"viability, T/C",[13],104%
same,"viability, T/C",[14],106%
same,"viability, T/C","second compound 0.316 µM, first compound 0.000316 µM",93.8%
same,"viability, T/C","second compound 0.316 µM, first compound 0.001 µM",99.3%
same,"viability, T/C",[33],98.2%
same,"viability, T/C",[34],91.6%
same,"viability, T/C",[17],96.7%
same,"viability, T/C",[18],100%
same,"viability, T/C","second compound 1 µM, first compound 0.000316 µM",90.6%
same,"viability, T/C","second compound 1 µM, first compound 0.001 µM",90.3%
same,"viability, T/C",[35],94%
same,"viability, T/C",[36],91.9%
same,"viability, T/C",[21],99.1%
same,"viability, T/C",[22],86.6%
